Test results published in ChEMBL document CHEMBL1140449, “Preliminary studies of new proteasome inhibitors in the tumor targeting approach: synthesis and in vitro cytotoxicity” (J Med Chem, 2005).
pIC50: −log10 of the molar value. Where a SMILES comes first, the peptide text is derived from it. The star is where a group is joined. Cbz = O=C(OCc1ccccc1)*

Assay: Inhibitory concentration for cytotoxic activity against human ocular melanoma IPC227F cells upon incubation for 48 h at 37 °C; call rule not given here
Compound `CCN(CC)CCNC(=O)c1ccc(C(=O)N[C@@H](CC(C)C)C(=O)N[C@@H](CC(C)C)C(=O)N[C@H](C=O)CC(C)C)cc1` has a pIC50 of 6.19. `CCN(CC)CCNC(=O)c1ccc(C(=O)N[C@@H](CC(C)C)C(=O)N[C@@H](Cc2ccccc2)C(=O)N[C@H](C=O)CC(C)C)cc1` gave a pIC50 of 5.55. In the case of `CC(C)C[C@@H](C=O)NC(=O)[C@H](CC(C)C)NC(=O)[C@H](CC(C)C)NC(=O)OCc1ccccc1` [MG-132] (Cbz-Leu-Leu-Leu-aldehyde), the pIC50 was 7.11. Compound `CCN(CC)CCNC(=O)c1ccc(C(=O)N[C@@H](Cc2ccccc2)C(=O)N[C@H](C=O)CC(C)C)cc1` has a pIC50 of 4.68. In the case of `CCN(CC)CCNC(=O)c1ccc(C(=O)N[C@@H](Cc2ccccc2)C(=O)N[C@@H](CC(C)C)C(=O)N[C@H](C=O)CC(C)C)cc1`, the pIC50 was 4.92.

Assay: Inhibitory concentration for cytotoxic activity against human ocular melanoma IPC227F cells upon incubation for 48 h at 37 °C; No inhibition
With `CCN(CC)CCNC(=O)c1ccc(C(=O)N[C@@H](CC(C)C)C(=O)N[C@H](C=O)CC(C)C)cc1` the IC50 was “Not Active”. In the case of `CCN(CC)CCNC(=O)c1ccc(C(=O)N[C@H](C=O)CC(C)C)cc1`, the IC50 was “Not Active”.
